In patent US11718604B2, “4-amino-6-(1,3-benzodioxole)picolinates and their use as herbicides” (Dow AgroSciences LLC, priority 2018, dated 2023):

Columns and labels:
Type in all cases: in vivo
[1] = test system: DIGSA: large crabgrass (Digitaria sanguinalis); test: Post-emergent herbicidal test, large crabgrass; conditions: post-emergence, 336 h, 14 days after application, read-out: Visual Growth Reduction (%) 14 Days After Application DIGSA; for pest or weed control at 17.5 g/ha: 17.5 g ai/ha; for pest or weed control at 35 g/ha: 35 g ai/ha; for pest or weed control at 70 g/ha: 70 g ai/ha; for pest or weed control at 140 g/ha: 140 g ai/ha
Outline: (§1)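 Scores reflect visual injury (0–100%) at 14 d post-spray on young plants treated at the 1st/2nd true leaf stage. Greenhouse held at about 23-29° C day and 22-28° C night; spray volume 187 L/ha, with solvent-blank controls.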

[2] = test system: VIOTR: wild violet (Viola tricolor); test: Post-emergent herbicidal test, wild violet; conditions: post-emergence, 336 h, 14 days after application, read-out: Visual Growth Reduction (%) 14 Days After Application VIOTR; for pest or weed control at 17.5 g/ha: 17.5 g ai/ha; for pest or weed control at 35 g/ha: 35 g ai/ha; for pest or weed control at 70 g/ha: 70 g ai/ha; for pest or weed control at 140 g/ha: 140 g ai/ha
Outline: as §1

[3] = test system: BRSNN: oilseed rape, canola (Brassica napus); test: Post-emergent herbicidal test, oilseed rape; conditions: post-emergence, 336 h, 14 days after application, read-out: Visual Growth Reduction (%) 14 Days After Application BRSNN; for pest or weed control at 17.5 g/ha: 17.5 g ai/ha; for pest or weed control at 35 g/ha: 35 g ai/ha; for pest or weed control at 70 g/ha: 70 g ai/ha; for pest or weed control at 140 g/ha: 140 g ai/ha
Outline: as §1

[4] = test system: SETFA: giant foxtail (Setaria faberi); test: Post-emergent herbicidal test, giant foxtail; conditions: post-emergence, 336 h, 14 days after application, read-out: Visual Growth Reduction (%) 14 Days After Application SETFA; for pest or weed control at 17.5 g/ha: 17.5 g ai/ha; for pest or weed control at 35 g/ha: 35 g ai/ha; for pest or weed control at 70 g/ha: 70 g ai/ha; for pest or weed control at 140 g/ha: 140 g ai/ha
Outline: as §1

[5] = test system: ABUTH: velvetleaf (Abutilon theophrasti); test: Post-emergent herbicidal test, velvetleaf; conditions: post-emergence, 336 h, 14 days after application, read-out: Visual Growth Reduction (%) 14 Days After Application ABUTH; for pest or weed control at 17.5 g/ha: 17.5 g ai/ha; for pest or weed control at 35 g/ha: 35 g ai/ha; for pest or weed control at 70 g/ha: 70 g ai/ha; for pest or weed control at 140 g/ha: 140 g ai/ha
Outline: as §1

[6] = test system: CYPES: yellow nutsedge (Cyperus esculentus); test: Post-emergent herbicidal test, yellow nutsedge; conditions: post-emergence, 336 h, 14 days after application, read-out: Visual Growth Reduction (%) 14 Days After Application CYPES; for pest or weed control at 17.5 g/ha: 17.5 g ai/ha; for pest or weed control at 35 g/ha: 35 g ai/ha; for pest or weed control at 70 g/ha: 70 g ai/ha; for pest or weed control at 140 g/ha: 140 g ai/ha
Outline: as §1

[7] = test system: CIRAR: Canada thistle (Cirsium arvense); test: Post-emergent herbicidal test, Canada thistle; conditions: post-emergence, 336 h, 14 days after application, read-out: Visual Growth Reduction (%) 14 Days After Application CIRAR; for pest or weed control at 17.5 g/ha: 17.5 g ai/ha; for pest or weed control at 35 g/ha: 35 g ai/ha; for pest or weed control at 70 g/ha: 70 g ai/ha; for pest or weed control at 140 g/ha: 140 g ai/ha
Outline: as §1

[8] = test system: ECHCG: barnyardgrass (Echinochloa crus-galli); test: Post-emergent herbicidal test, barnyardgrass; conditions: post-emergence, 336 h, 14 days after application, read-out: Visual Growth Reduction (%) 14 Days After Application ECHCG; for pest or weed control at 17.5 g/ha: 17.5 g ai/ha; for pest or weed control at 35 g/ha: 35 g ai/ha; for pest or weed control at 70 g/ha: 70 g ai/ha; for pest or weed control at 140 g/ha: 140 g ai/ha
Outline: as §1

[9] = test system: IPOHE: ivyleaf morningglory (Ipomoea hederacea); test: Post-emergent herbicidal test, ivyleaf morningglory; conditions: post-emergence, 336 h, 14 days after application, read-out: Visual Growth Reduction (%) 14 Days After Application IPOHE; for pest or weed control at 17.5 g/ha: 17.5 g ai/ha; for pest or weed control at 35 g/ha: 35 g ai/ha; for pest or weed control at 70 g/ha: 70 g ai/ha; for pest or weed control at 140 g/ha: 140 g ai/ha
Outline: as §1

[10] = test system: EPHHL: wild poinsettia (Euphorbia heterophylla); test: Post-emergent herbicidal test, wild poinsettia; conditions: post-emergence, 336 h, 14 days after application, read-out: Visual Growth Reduction (%) 14 Days After Application EPHHL; for pest or weed control at 17.5 g/ha: 17.5 g ai/ha; for pest or weed control at 35 g/ha: 35 g ai/ha; for pest or weed control at 70 g/ha: 70 g ai/ha; for pest or weed control at 140 g/ha: 140 g ai/ha
Outline: as §1

[11] = test system: SORVU: shattercane (Sorghum bicolor); test: Post-emergent herbicidal test, shattercane; conditions: post-emergence, 336 h, 14 days after application, read-out: Visual Growth Reduction (%) 14 Days After Application SORVU; for pest or weed control at 17.5 g/ha: 17.5 g ai/ha; for pest or weed control at 35 g/ha: 35 g ai/ha; for pest or weed control at 70 g/ha: 70 g ai/ha; for pest or weed control at 140 g/ha: 140 g ai/ha
Outline: as §1

`Nc1c(F)c(-c2ccc(Cl)c3c2OC(F)(F)O3)nc(C(=O)O)c1Cl` [Compound 14] was tested, and the pest or weed control at 17.5 g/ha [1] was 0%, the pest or weed control at 35 g/ha [1] was 0% and the pest or weed control at 70 g/ha [1] was 0%. The pest or weed control at 140 g/ha [1] was 5%, the pest or weed control at 17.5 g/ha [2] was 5% and the pest or weed control at 35 g/ha [2] was 13%. It also gave a pest or weed control at 70 g/ha [2] of 43%, a pest or weed control at 140 g/ha [2] of 58% and a pest or weed control at 17.5 g/ha [3] of 90%. It also gave a pest or weed control at 35 g/ha [3] of 95%, a pest or weed control at 70 g/ha [3] of 98% and a pest or weed control at 140 g/ha [3] of 100%. The pest or weed control at 17.5 g/ha [4] was 0%, the pest or weed control at 35 g/ha [4] was 0% and the pest or weed control at 70 g/ha [4] was 0%. It also gave a pest or weed control at 140 g/ha [4] of 0%, a pest or weed control at 17.5 g/ha [5] of 43% and a pest or weed control at 35 g/ha [5] of 53%. For the same compound, the pest or weed control at 70 g/ha [5] was 73%, the pest or weed control at 140 g/ha [5] was 80% and the pest or weed control at 17.5 g/ha [6] was 0%. The pest or weed control at 35 g/ha [6] was 10%, the pest or weed control at 70 g/ha [6] was 30% and the pest or weed control at 140 g/ha [6] was 50%. For the same compound, the pest or weed control at 17.5 g/ha [7] was 78%, the pest or weed control at 35 g/ha [7] was 83% and the pest or weed control at 70 g/ha [7] was 85%. For the same compound, the pest or weed control at 140 g/ha [7] was 90%, the pest or weed control at 17.5 g/ha [8] was 0% and the pest or weed control at 35 g/ha [8] was 0%. It also gave a pest or weed control at 70 g/ha [8] of 0%, a pest or weed control at 140 g/ha [8] of 5% and a pest or weed control at 17.5 g/ha [9] of 3%. The pest or weed control at 35 g/ha [9] was 3%, the pest or weed control at 70 g/ha [9] was 8% and the pest or weed control at 140 g/ha [9] was 13%. It also gave a pest or weed control at 17.5 g/ha [10] of 0%, a pest or weed control at 35 g/ha [10] of 0% and a pest or weed control at 70 g/ha [10] of 0%. The pest or weed control at 140 g/ha [10] was 10%, the pest or weed control at 17.5 g/ha [11] was 0% and the pest or weed control at 35 g/ha [11] was 3%. The pest or weed control at 70 g/ha [11] was 13% and the pest or weed control at 140 g/ha [11] was 30%.

For `Nc1c(F)c(-c2cccc3c2OCO3)nc(C(=O)O)c1Cl` [Compound 3], the pest or weed control at 17.5 g/ha [1] was 0%, the pest or weed control at 35 g/ha [1] was 0% and the pest or weed control at 70 g/ha [1] was 0%. For the same compound, the pest or weed control at 140 g/ha [1] was 0%, the pest or weed control at 17.5 g/ha [2] was 0% and the pest or weed control at 35 g/ha [2] was 15%. The pest or weed control at 70 g/ha [2] was 30%, the pest or weed control at 140 g/ha [2] was 35% and the pest or weed control at 17.5 g/ha [3] was 60%. It also gave a pest or weed control at 35 g/ha [3] of 80%, a pest or weed control at 70 g/ha [3] of 95% and a pest or weed control at 140 g/ha [3] of 98%. The pest or weed control at 17.5 g/ha [4] was 0%, the pest or weed control at 35 g/ha [4] was 0% and the pest or weed control at 70 g/ha [4] was 0%. For the same compound, the pest or weed control at 140 g/ha [4] was 0%, the pest or weed control at 17.5 g/ha [5] was 60% and the pest or weed control at 35 g/ha [5] was 80%. The pest or weed control at 70 g/ha [5] was 95%, the pest or weed control at 140 g/ha [5] was 95% and the pest or weed control at 17.5 g/ha [6] was 0%. For the same compound, the pest or weed control at 35 g/ha [6] was 0%, the pest or weed control at 70 g/ha [6] was 0% and the pest or weed control at 140 g/ha [6] was 0%. The pest or weed control at 17.5 g/ha [7] was 70%, the pest or weed control at 35 g/ha [7] was 85% and the pest or weed control at 70 g/ha [7] was 95%. The pest or weed control at 140 g/ha [7] was 95%, the pest or weed control at 17.5 g/ha [8] was 0% and the pest or weed control at 35 g/ha [8] was 0%. The pest or weed control at 70 g/ha [8] was 0%, the pest or weed control at 140 g/ha [8] was 0% and the pest or weed control at 17.5 g/ha [9] was 0%. For the same compound, the pest or weed control at 35 g/ha [9] was 0%, the pest or weed control at 70 g/ha [9] was 0% and the pest or weed control at 140 g/ha [9] was 0%. The pest or weed control at 17.5 g/ha [10] was 0%, the pest or weed control at 35 g/ha [10] was 0% and the pest or weed control at 70 g/ha [10] was 0%. For the same compound, the pest or weed control at 140 g/ha [10] was 0%, the pest or weed control at 17.5 g/ha [11] was 0% and the pest or weed control at 35 g/ha [11] was 0%. The pest or weed control at 70 g/ha [11] was 0% and the pest or weed control at 140 g/ha [11] was 0%.
